In data set [1] the test system is OVCAR-3 ovarian carcinoma. Put plainly: MTS viability assay, 1 hour exposure, OVCAR-3. Type of data set: cell-based. Particulars: Homo sapiens, OVCAR-3, 1 hour exposure. The protocol: (§1) Using four different cell lines, HT29 colon, OVCAR-3 ovarian, AsPC-1 pancreatic, and PC-3 prostate carcinoma, the IC50 values of compound 6 and irofulven were established for one hour incubations using the MTS viability assay (Buttke T. M. et al., J Immunol Methods. 1993, 157, 233).

The subject of the next data set is HT29 colon carcinoma. The experiment in a line: MTS viability assay, 1 hour exposure, HT29. The class given is cell-based. Particulars: Homo sapiens, HT-29, HT29, 1 hour exposure. The procedure:
as §1
(In general: Tetrazolium dyes change colour on reduction, which living cells bring about.)

Data set [2] in a line: Maximum tolerated dose on the 3/wk for 21 d schedule. Conditions: nude, mouse, in vivo, IP, read-out: previously-determined efficacious MTD. The protocol:
A novel dosing schedule for acyfulvene analogs is described herein. This dosing schedule requires less frequent administration of individual dosages exceeding the previously-determined maximum tolerated dose (MTD) for each dose on an intermittent schedule of 3/wk for 21 d. For example, compound 6 was tested on a dosing schedule of 1/wk for 14 d. On this schedule, the total cumulative dose was less than the total cumulative dose administered on the 3/wk for 21 d-schedule, but with equal efficacy (FIG. 5). The 3/wk for 21 d dosing schedule is a standard method of administration for irofulven. The 1/wk for […] schedule for Compound 6 disclosed herein was unexpected based on prior work and presents a unique opportunity to administer less total dose of a cytotoxic chemotherapeutic less frequently and thereby reduce the overall toxic effect on the patient. This represents an increase in human safety and compliance, as a weekly dosing schedule is easier to follow than a more frequent dosing schedule.
The MV522 xenograft model was used to test the in vivo activity of Compound 6 administration on a weekly schedule. […] The comparator dosages were the previously-determined efficacious MTDs for the 3/wk for 21 d schedule (FIG. 5).

Data set [3] has as its system subcutaneous MV522 tumors. Put plainly: MV522 mouse xenograft model. Type of data set: in vivo. Particulars: 3/wk for 21 d; for PR (Partial Response): mice with partial response/mice. The procedure: The MV522 xenograft model was used to test the in vivo activity of compounds 6 and 7 as previously described (Kelner M. J. et al., Invest New Drugs. 1996, 14, 161). Mice bearing subcutaneous MV522 tumors were dosed intraperitoneally three times a week for three weeks (3/wk for 21 d) at 10 mg/kg of irofulven, doses ranging from 7.5 to 10 mg/kg for compound 6, or 5 to 15 mg/kg for compound 7 (FIGS. 1 and 2 and Table 3). Compound 6 had potent anti-tumor activity against MV522 tumors, producing 4/6 and 5/5 partial responses in mice treated with 7.5 and 10 mg/kg doses, respectively.
The MV522 xenograft model was used to test the in vivo activity of Compound 6 administration on a weekly schedule. Nude mice bearing subcutaneous MV522 tumors were dosed intraperitoneally (IP) 1/wk for 14 d at 17.5 mg/kg Compound 6 vs 7.5 mg/kg Compound 6 or 10 mg/kg irofulven on the intermittent schedule (3/wk for 21 d). The comparator dosages were the previously-determined efficacious MTDs for the 3/wk for 21 d schedule (FIG. 5).

Another data set deals with PC-3 prostate carcinoma. Put plainly: MTS viability assay, 1 hour exposure, PC-3. The class given is cell-based. Particulars: PC-3, 1 hour exposure. The protocol:
as §1

Data set [4] concerns AsPC-1 pancreatic carcinoma. Put plainly: MTS viability assay, 1 hour exposure, AsPC-1. The class given is cell-based. The procedure:
as §1

A short description of data set [5]: Pharmacokinetics after single intravenous administration in male CD-1 mice. The class given is in vivo, mouse. Conditions: for clearance: read-out: CLp (converted); for Vd: read-out: Vdss. The protocol: The pharmacokinetics (PK) of Compound 6 was investigated in the CD-1 male mouse. A single intravenous administration of 5 mg/kg was followed by sequential blood collections and analysis of plasma by LC/MS/MS.

Data set [6] is described as follows: Plasma stability in pooled fresh human plasma at 37° C., LC/MS/MS. The class given is in vitro ADME. An excerpt: Compounds 6 and 7 were compared against irofulven for their respective plasma stability (e.g., the enhanced stability or in vivo terminal phase elimination half life (T½) of a compound in plasma; it is believed that the greater the stability and T½ the more likely it is that the compound will be incorporated into or have an effect on a cancerous cell, such as cells of a tumor or a hematologic cancerous cell). Pooled fresh human plasma was spiked with each analog, and the compound stability profile was measured at 37° C. using LC/MS/MS. […] These properties differentiate Compounds 6 and 7 from irofulven and may have enhanced therapeutic potential. The increased plasma stability of Compound 6 may be particularly advantageous in drug formulation and delivery as it relates to increased exposure of the tumor to the drug. Thus, compound 6 has increased stability in human plasma in vitro (FIG. 3).

The next data set relates to MV522 lung cancer cells. Put plainly: Thymidine incorporation into cellular DNA, 2 hour exposure, MV522 tumor cell line. Type of data set: cell-based. Particulars: MV522, 2 hour exposure. An excerpt:
The anti-cancer activities of compounds 6, 7, 14, 16, 18, 20, 21 and 22 were compared to that of irofulven, 3, using MV522 lung cancer cells in vitro (See Kelner M. J. et al., Cancer Res. 1987, 47, 3186).
A general note: Incorporation of labelled thymidine or its analogues reports DNA synthesis.

The mark [7] stands for this setting: Homo sapiens, ASPC1, AsPC-1, 1 hour exposure, read-out: GI50.
[8] abbreviates: mouse, plasma, 5 mg/kg single IV.
Setting [9] is: mouse, plasma, 5 mg/kg IV, concentrations extrapolated from a 12.9 mg/kg IV dose.

≈ marks a conversion by molar mass, not a printed value. Read-outs that look alike come from different tables or passages of the source.

Usually GI50 stands for the concentration at which growth is held to half of that of the control. In general, MTD refers to the largest dose that counted as tolerated. For orientation: AUC(0-t) means the area under the concentration-time curve up to a stated or last time point. For orientation: Cmax means the maximum level reached in the sampled fluid or tissue. In general, AUC(0-inf) refers to total exposure, with the tail of the curve extrapolated. As a reminder, the half-life is how long it takes for the measured level to halve. As to `CC1=C(CN(O)C(N)=O)C2=C(C)C3(CC3)[C@@](C)(O)C(=O)C2=C1` [Compound 6, N-hydroxy-N-(methylacylfulvene)urea], in [1], growth was halved (GI50) at 0.6 µg/mL (≈ 1.97 µM). In the data set on HT29 colon carcinoma, this compound displayed a 50% growth inhibitory concentration (GI50) of 0.68 µg/mL (≈ 2.23 µM). The MTD at 21 d in data set [2] came out at 7.5 mg/kg. Besides, in data set [3] (7.5 mg/kg i.p.), the “% Tumor Growth Inhibition” value is on record as 100%, the “Relative Mean Tumor Weight (Wt/Wi)” value is reported as 0.9 and the “PR (Partial Response)” value is recorded as 4/6. Also, in data set [3] (10 mg/kg i.p.), the “% Tumor Growth Inhibition” value is listed as 100%, the “Relative Mean Tumor Weight (Wt/Wi)” value is listed as 0.3 and the “PR (Partial Response)” value is reported as 5/5. For the same compound, in the data set on PC-3 prostate carcinoma, halving of growth (GI50) required 0.41 µg/mL (≈ 1.35 µM). For the same compound, the GI50 entry in data set [4] (AsPC-1, 1 hour exposure) is “greater potency”. For the same compound, the GI50 in data set [4] (setting [7]) amounted to 16 µg/mL (≈ 52.6 µM). Further, in data set [5] (5 mg/kg single IV), the “AUC(0-t)” value is given as “greater”, the CLp result is recorded as “reduced”, the Cmax result is given as “greater” and the T1/2 entry was “significantly longer”. Besides, the Vdss entry in [5] (5 mg/kg single IV) is given as “reduced”. In data set [5] (setting [8]), the area under the curve AUC(0-inf) is 2200 ng·h/mL, the half-life was 2.36 h, the clearance was 37.8 mL/min/kg and the Vd was found to be 0.548 L/kg. Further, in data set [5] (mouse, plasma, 5 mg/kg single IV, read-out: AUC (0-t)), the exposure AUC(0-t) amounted to 2200 ng·h/mL. In addition, in data set [5] (mouse, plasma, 5 mg/kg single IV, read-out: Cmax), the Cmax was found to be 9730 ng/mL. Besides, the “stability in human plasma compared with irofulven” value in [6] was “more stable”.

A word on the IC50: it is the concentration needed to halve the response being measured. A higher IC50 goes with lower potency. `CC1=C(CO)C2=C(C)C3(CC3)[C@@](C)(O)C(=O)C2=C1` [Irofulven, 6-hydroxymethylacylfulvene, reference compound] gave a GI50 in data set [1] of 0.15 µg/mL (≈ 0.609 µM). For the same compound, in the data set with HT29 colon carcinoma, the GI50 is 1.4 µg/mL (≈ 5.68 µM). For the same compound, the maximum tolerated dose (MTD) at 21 d in data set [2] is 10 mg/kg. For the same compound, in data set [3] (10 mg/kg i.p.), the “% Tumor Growth Inhibition” value was found to be 100%, the “Relative Mean Tumor Weight (Wt/Wi)” value was 0.8 and the “PR (Partial Response)” value is 6/7. Further, it took 0.58 µg/mL (≈ 2.35 µM) to inhibit growth in the data set with PC-3 prostate carcinoma by half (GI50). Also, the GI50 in data set [4] (setting [7]) was above 100 µg/mL. In addition, in data set [5] (setting [9]), the AUC(0-inf) is 695 ng·h/mL, the half-life is 0.0988 h, the clearance was 120 mL/min/kg and the Vd is 0.948 L/kg. Also, the AUC(0-t) in data set [5] (mouse, plasma, 5 mg/kg IV, concentrations extrapolated from a 12.9 mg/kg IV dose, read-out: AUC (0-t)) is 691 ng·h/mL. Also, in data set [5] (mouse, plasma, 5 mg/kg IV, concentrations extrapolated from a 12.9 mg/kg IV dose, read-out: Cmax), the Cmax was 5650 ng/mL. For the same compound, the IC50 in the data set on MV522 lung cancer cells turned out to be 1200 ± 100 nM.

Consider `CC(=O)ON(CC1=C(C)C=C2C(=O)[C@](C)(O)C3(CC3)C(C)=C21)C(N)=O` [Compound 7, N-Acetoxy-N-(methylacylfulvene)urea], for which the “% Tumor Growth Inhibition” value in [3] (5 mg/kg i.p.) is given as 56%; in [3] (5 mg/kg i.p., listed as compound 7), 56%; in data set [3] (10 mg/kg i.p.), 79%; in data set [3] (10 mg/kg i.p., listed as compound 7), 79%; in data set [3] (15 mg/kg i.p.), 100%. Further, the figures for the “Relative Mean Tumor Weight (Wt/Wi)” value in data set [3] (5 mg/kg i.p.), in [3] (10 mg/kg i.p.) and in data set [3] (15 mg/kg i.p.) were 4.5, 2.2 and 0.7, respectively. Also, in [3] (15 mg/kg i.p.), the “PR (Partial Response)” value was 4/6. The “stability in human plasma compared with irofulven” value in data set [6] was “less stable”.

The record behind these values is patent US7655695B2, “Illudin analogs useful as anticancer agents” (The Regents of The University of California, priority 2005, dated 2010).
